Measured values taken from ChEMBL document CHEMBL6182898, “Design, synthesis and bioevaluation of novel hydrazide derivatives as enhancers of immunotherapy and DNA-damage response in antitumor therapy” (Eur J Med Chem, 2025).
Calls of active or inactive are those of the source. The rule behind the calls is not given here.

What was measured:
[1] = target: Programmed cell death 1 ligand 1 (Mus musculus, UniProt Q9EP73); experiment: Induction of PD-L1 degradation in mouse B16-F10 cells incubated for 24 hrs by Western blot analysis; assay type: cell-based
Chain of Programmed cell death 1 ligand 1 (Q9EP73 whole entry): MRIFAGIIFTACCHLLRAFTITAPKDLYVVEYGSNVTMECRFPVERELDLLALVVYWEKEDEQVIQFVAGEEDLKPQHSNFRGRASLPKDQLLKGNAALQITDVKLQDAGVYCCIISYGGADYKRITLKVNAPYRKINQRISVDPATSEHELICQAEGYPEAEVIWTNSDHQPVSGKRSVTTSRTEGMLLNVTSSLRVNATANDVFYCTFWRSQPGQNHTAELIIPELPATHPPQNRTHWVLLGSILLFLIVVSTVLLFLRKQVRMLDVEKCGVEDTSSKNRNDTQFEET

[2] = target: Programmed cell death 1 ligand 1 (Mus musculus) (UniProt Q9EP73); experiment: Induction of PD-L1 degradation in mouse B16-F10 cells at 2 uM incubated for 24 hrs in presence of CA-074 by Western blot analysis; assay type: cell-based
Chain of Programmed cell death 1 ligand 1 (Mus musculus) (Q9EP73 whole entry): as above

[3] = target: Programmed cell death 1 ligand 1 (Mus musculus) (UniProt Q9EP73); experiment: Induction of PD-L1 degradation in mouse B16-F10 cells assessed as increase in CTSB level at 0.313 to 10 uM incubated for 24 hrs by Western blot analysis; assay type: cell-based; conditions: dose 0.313-10 µM
4T1 [4] = experiment: Synergistic induction of DNA damage in mouse 4T1 cells assessed as increase in gamma-H2AX level at 1 uM incubated for 24 hrs in presence of Olaparib by Western blot analysis; assay type: functional, cell-based
4T1 [5] = experiment: Induction of DNA damage in mouse 4T1 cells assessed as decrease in PARP1 level at 5 uM by immunofluorescence based analysis; assay type: functional, cell-based
4T1 [6] = experiment: Induction of DNA damage in mouse 4T1 cells assessed as increase in gamma-H2AX level at 5 uM by immunofluorescence based analysis; assay type: functional, cell-based
[7] = AUC (0 to infinity) in male Sprague-Dawley rat at 2 mg/kg, iv measured for 0.083 to 12 hrs by LC-MS/MS analysis; assay type: ADME, organism-based; conditions: in vivo, time 0.083-12 hrs
[8] = AUMC (0 to t) in male Sprague-Dawley rat at 2 mg/kg, iv measured for 0.083 to 12 hrs by LC-MS/MS analysis; assay type: ADME, organism-based; conditions: in vivo, time 0.083-12 hrs
[9] = MRT (0 to infinity) in male Sprague-Dawley rat at 2 mg/kg, iv measured for 0.083 to 12 hrs by LC-MS/MS analysis; assay type: ADME, organism-based; conditions: in vivo, time 0.083-12 hrs
[10] = Clast in male Sprague-Dawley rat at 2 mg/kg, iv measured for 0.083 to 12 hrs by LC-MS/MS analysis; assay type: ADME, organism-based; conditions: in vivo, time 0.083-12 hrs
[11] = Apparent volume of distribution in male Sprague-Dawley rat at 2 mg/kg, iv measured for 0.083 to 12 hrs by LC-MS/MS analysis; assay type: ADME, organism-based; conditions: in vivo, time 0.083-12 hrs, read-out: Vz
[12] = Clearance in male Sprague-Dawley rat at 2 mg/kg, iv measured for 0.083 to 12 hrs by LC-MS/MS analysis; assay type: ADME, organism-based; conditions: in vivo, time 0.083-12 hrs
[13] = AUC (0 to infinity) in male Sprague-Dawley rat at 20 mg/kg, po measured for 0.083 to 12 hrs by LC-MS/MS analysis; assay type: ADME, organism-based; conditions: in vivo, time 0.083-12 hrs
[14] = AUMC (0 to t) in male Sprague-Dawley rat at 20 mg/kg, po measured for 0.083 to 12 hrs by LC-MS/MS analysis; assay type: ADME, organism-based; conditions: in vivo, time 0.083-12 hrs
[15] = MRT (0 to infinity) in male Sprague-Dawley rat at 20 mg/kg, po measured for 0.083 to 12 hrs by LC-MS/MS analysis; assay type: ADME, organism-based; conditions: in vivo, time 0.083-12 hrs
[16] = Clast in male Sprague-Dawley rat at 20 mg/kg, po measured for 0.083 to 12 hrs by LC-MS/MS analysis; assay type: ADME, organism-based; conditions: in vivo, time 0.083-12 hrs
[17] = Apparent volume of distribution in male Sprague-Dawley rat at 20 mg/kg, po measured for 0.083 to 12 hrs by LC-MS/MS analysis; assay type: ADME, organism-based; conditions: in vivo, time 0.083-12 hrs
[18] = Oral bioavailability in male Sprague-Dawley rat at 20 mg/kg measured for 0.083 to 12 hrs by LC-MS/MS analysis; assay type: ADME, organism-based; conditions: in vivo, time 0.083-12 hrs
B16-F10 [19] = experiment: Antitumor activity against mouse B16-F10 cells implanted in male C57BL/6J mouse at 50 mg/kg, IG treated for 14 days consecutively relative to control; assay type: functional; conditions: B16-F10, po, 336 h, time 14 day, read-out: TGI
[20] = Toxicity in male C57BL/6J mouse implanted with mouse B16-F10 cells assessed as body weight change at 25 mg/kg, IG treated for 14 days consecutively in presence of NP-19; assay type: organism-based; conditions: in vivo, po, 336 h, time 14 day
[21] = Toxicity in male C57BL/6J mouse implanted with mouse B16-F10 cells assessed as histopathological damage in heart at 50 mg/kg, IG treated for 14 days consecutively by H and E staining based analysis; assay type: organism-based; conditions: in vivo, po, 336 h, time 14 day
[22] = Toxicity in male C57BL/6J mouse implanted with mouse B16-F10 cells assessed as histopathological damage in heart at 25 mg/kg, IG treated for 14 days consecutively in presence of NP-19 by H and E staining based analysis; assay type: organism-based; conditions: in vivo, po, 336 h, time 14 day
[23] = Toxicity in male C57BL/6J mouse implanted with mouse B16-F10 cells assessed as histopathological damage in liver at 25 mg/kg, IG treated for 14 days consecutively in presence of NP-19 by H and E staining based analysis; assay type: organism-based; conditions: in vivo, po, 336 h, time 14 day
[24] = Toxicity in male C57BL/6J mouse implanted with mouse B16-F10 cells assessed as histopathological damage in kidney at 25 mg/kg, IG treated for 14 days consecutively in presence of NP-19 by H and E staining based analysis; assay type: organism-based; conditions: in vivo, po, 336 h, time 14 day
B16-F10 [25] = experiment: Induction of antitumor immunity in mouse B16-F10 cells implanted in male C57BL/6J mouse assessed as CD3+CD4+ T cell infiltration at 25 mg/kg, IG treated for 14 days consecutively in presence of NP-19 by flow cytometry (reference value: 7.4 %); assay type: functional; conditions: time 14 day
B16-F10 [26] = experiment: Induction of antitumor immunity in mouse B16-F10 cells implanted in male C57BL/6J mouse assessed as CD3+CD8+ T cell infiltration at 50 mg/kg, IG treated for 14 days consecutively by flow cytometry (reference value: 10 %); assay type: functional; conditions: time 14 day
B16-F10 [27] = experiment: Induction of antitumor immunity in mouse B16-F10 cells implanted in male C57BL/6J mouse assessed as increase in T cell infiltration at 25 mg/kg, IG treated for 14 days consecutively in presence of NP-19 by immunofluorescence based analysis; assay type: functional, organism-based; conditions: time 14.0 day
Mus musculus = experiment: Effect on Ac-alpha-tubulin in mouse B16-F10 cells implanted in male C57BL/6J mouse at 50 mg/kg, IG treated for 14 days consecutively by Western blot analysis; assay type: functional, organism-based; conditions: time 14.0 day
4T1 [28] = experiment: Synergistic antitumor activity against mouse 4T1 cells implanted in mouse at 25 mg/kg/day in presence of olaparib relative to control; assay type: functional; conditions: read-out: TGI
4T1 [29] = experiment: Induction of DNA damage in mouse 4T1 cells implanted in mouse assessed as increase in gamma-H2AX level at 50 mg/kg/day by Western blot analysis; assay type: functional, organism-based
4T1 [30] = experiment: Induction of DNA damage in mouse 4T1 cells implanted in mouse assessed as decrease in PARP level at 50 mg/kg/day by immunofluorescence based analysis; assay type: functional, organism-based
4T1 [31] = experiment: Synergistic induction of DNA damage in mouse 4T1 cells implanted in mouse assessed as increase in gamma-H2AX level at 25 mg/kg/day in presence of olaparib by immunofluorescence based analysis; assay type: functional, organism-based
4T1 [32] = experiment: Synergistic induction of DNA damage in mouse 4T1 cells implanted in mouse assessed as increase in gamma-H2AX level at 25 mg/kg/day in presence of olaparib by IHC analysis; assay type: functional, organism-based

- AUC(0-inf) [7]: 658 ng·h/mL
- AUMCt [8]: 223.08 hr.hr.ug/L
- MRT inf [9]: 0.37 h
- Clast [10]: 0.24 ng/mL
- Vd [11]: 10.6 L/kg
- clearance [12]: 53.8 mL/min/kg
- AUC(0-inf) [13]: 32.1 ng·h/mL
- AUMCt [14]: 77.04 hr.hr.ug/L
- MRT inf [15]: 3.13 h
- Clast [16]: 0.27 ng/mL
- Vz [17]: 2785.62 L/kg
- bioavailability [18]: 0.49%
Structure (SMILES): CCCNNC(=O)CCCCCCNC(=O)c1cnc(-c2ccc(NC(=O)OC(C)(C)C)cc2)s1
- DC50 [1]: 4.17 µM
- Activity [2]: inactive
- Activity [3]: Active
- Activity (4T1 [4]): Active
- Activity (4T1 [5]): Active
- Activity (4T1 [6]): Active
- inhibition in vivo at 50 mg/kg (B16-F10 [19]): 59%
- Activity [20]: Non-toxic
- Activity [21]: Non-toxic
- Activity [22]: Non-toxic
- Activity [23]: Non-toxic
- Activity [24]: Non-toxic
- Activity (B16-F10 [25]): 28%
- Activity (B16-F10 [26]): 22%
- Activity (B16-F10 [27]): Active
- Activity (Mus musculus): No effect
- inhibition in vivo at 25 mg/kg/day (4T1 [28]): 88%
- Activity (4T1 [29]): Active
- Activity (4T1 [30]): Active
- Activity (4T1 [31]): Active
- Activity (4T1 [32]): Active
